# Reference: patent publication US11142515B2, “Pyrazolyl-ureas as kinase inhibitors” (RESPIVERT LIMITED, priority 2014, dated 2021)
# Columns and labels:
# Hck = molecular target: T1, Hck (Homo sapiens, UniProt P08631); assay: Hck enzyme inhibition (Z-LYTE FRET); format: biochemical; details: Table 2A
# T1 construct: purchased Life Technologies
# Method: The enzyme inhibitory activities of compounds disclosed herein were determined by FRET using synthetic peptides labelled with both donor and acceptor fluorophores (Z-LYTE, Life Technologies, Paisley, UK).
# The relevant enzyme (1000 ng/mL, 1400 ng/mL or 2000 ng/mL respectively, 2.5 μL) was incubated with the test compound (either 40 μg/mL, 12 μg/mL, 4 μg/mL, 1.2 μg/mL, 0.4 μg/mL, 0.12 μg/mL, 0.04 μg/mL, 0.012 μg/mL, 0.004 μg/mL or 0.0012 μg/mL, 2.5 μL each) for 2 h at RT. The FRET peptides (8 μM, 2.5 μL), and appropriate ATP solutions (2.5 μL, 800 μM for c-Src, and 60 μM ATP for HCK and Syk) were then added to the enzyme/compound mixtures and incubated for 1 h at RT. Development reagent (protease, 5 μL) was added for 1 h prior to detection in a fluorescence microplate reader (EnVision, Perkin Elmer).
# In all cases, the site-specific protease cleaves non-phosphorylated peptide only and eliminates the FRET signal. Phosphorylation levels of each reaction were calculated using the ratio of coumarin emission (donor) over fluorescein emission (acceptor), for which low ratios indicate high phosphorylation and high ratios indicate low phosphorylation levels.
# [1] = tested on: IL-8 release in d-U937 cells; assay: LPS-induced IL-8 release in d-U937 cells; format: cell-based; details: Homo sapiens, dU937, LPS 0.1 μg/mL 4 h
# Method: (§1) U937 cells, a human monocytic cell line, were differentiated into macrophage-type cells by incubation with PMA (100-200 ng/mL) for 48 to 72 h. Cells were pre-incubated with final […] concentrations of test compound for 2 h and were then stimulated with LPS (0.1 μg/mL; from E. coli: O111:B4, Sigma) for 4 h. The supernatant was collected for determination of TNFα and IL-8 concentrations by sandwich ELISA (Duo-set, R&D systems). […] The relative 50% effective concentration (REC50) was determined from the resultant concentration-response curve. The inhibition of IL-8 production was calculated at each concentration of test compound by comparison with vehicle control.
# [2] = tested on: TNFα release in d-U937 cells; assay: LPS-induced TNFα release in d-U937 cells; format: cell-based; details: Homo sapiens, dU937; read-out: LPS Induced Release TNFα REC50 (dU937); further: relative to 10 µg/mL BIRB-796
# Method: as §1
# [3] = tested on: ICAM-1 expression in BEAS2B cells; assay: Poly I:C-induced ICAM-1 expression in BEAS2B cells; format: cell-based; details: Homo sapiens, BEAS-2B, read-out: PolyIC/ICAM1 IC50 (BEAS2B)
# Method: Poly I:C was used in these studies as a simple, RNA virus mimic. Poly I:C-Oligofectamine mixture (2% Oligofectamine±1 μg/mL Poly I:C, 25 μL; Life Technologies and Invivogen Ltd., San Diego, Calif., respectively) was transfected into BEAS2B cells (human bronchial epithelial cells, ATCC). Cells were pre-incubated with final concentrations of test compounds for 2 h and the level of ICAM-1 expression on the cell surface was determined by cell-based ELISA. At a time point 18 h after poly I:C transfection, cells were fixed with 4% formaldehyde in PBS (100 μL) and then endogenous peroxidase was quenched by the addition of washing buffer (100 μL, 0.05% Tween in PBS: PBS-Tween) containing 0.1% sodium azide and 1% hydrogen peroxide. Cells were washed with wash-buffer (3×200 μL). After blocking the wells with 5% milk in PBS-Tween (100 μL) for 1 h, the cells were incubated with anti-human ICAM-1 antibody (50 μL; Cell Signaling Technology, Danvers, Mass.) in 1% BSA PBS overnight at 4° C.
# The cells were washed with PBS-Tween (3×200 μL) and incubated with the secondary antibody (100 μL; HRP-conjugated anti-rabbit IgG, Dako Ltd., Glostrup, Denmark). The cells were then incubated with of substrate (50 μL) for 2-20 min, followed by the addition of stop solution (50 μL, 1N H2SO4). The ICAM-1 signal was detected by reading the absorbance at 450 nm against a reference wavelength of 655 nm using a spectrophotometer. The cells ware then washed with PBS-Tween (3×200 μL) and total cell numbers in each well were determined by reading absorbance at 595 nm after Crystal Violet staining (50 μL of a 2% solution in PBS) and elution by 1% SDS solution (100 μL) in PBS. The measured OD 450-655 readings were corrected for cell number by dividing with the OD595 reading in each well. The inhibition of ICAM-1 expression was calculated at each concentration of test compound by comparison with vehicle control.
# [4] = tested on: alveolar macrophages and neutrophils in BALF; assay: Cigarette smoke model: macrophages and neutrophils in BALF; format: in vivo, A/J mice; details: mice; for Cell numbers in BALF, Macrophage / Cell numbers in BALF, Macrophage, % inhibition / Cell numbers in BALF, Neutrophil / Cell numbers in BALF, Neutrophil, % inhibition: tobacco smoke
# Method: A/J mice (males, 5 weeks old) were exposed to cigarette smoke (4% cigarette smoke, diluted with air) for 30 min/day for 11 days using a Tobacco Smoke Inhalation Experiment System for small animals (Model SIS-CS; Sibata Scientific Technology, Tokyo, Japan). […] At 12 h after the last […], each of the animals was anesthetized, the trachea cannulated and bronchoalveolar lavage fluid (BALF) was collected. The numbers of alveolar macrophages and neutrophils were determined by FACS analysis (EPICS® ALTRA II, Beckman Coulter, Inc., Fullerton, Calif., USA) using anti-mouse MOMA2 antibody (macrophage) or anti-mouse 7/4 antibody (neutrophil). BALF was centrifuged and the supernatant was collected. The level of keratinocyte chemoattractant (KC; CXCL1) in BALF was quantitated using a Quantikine® mouse KC ELISA kit (R&D systems, Inc., Minneapolis, Minn., USA).
# T1 sequence (P08631 22-526): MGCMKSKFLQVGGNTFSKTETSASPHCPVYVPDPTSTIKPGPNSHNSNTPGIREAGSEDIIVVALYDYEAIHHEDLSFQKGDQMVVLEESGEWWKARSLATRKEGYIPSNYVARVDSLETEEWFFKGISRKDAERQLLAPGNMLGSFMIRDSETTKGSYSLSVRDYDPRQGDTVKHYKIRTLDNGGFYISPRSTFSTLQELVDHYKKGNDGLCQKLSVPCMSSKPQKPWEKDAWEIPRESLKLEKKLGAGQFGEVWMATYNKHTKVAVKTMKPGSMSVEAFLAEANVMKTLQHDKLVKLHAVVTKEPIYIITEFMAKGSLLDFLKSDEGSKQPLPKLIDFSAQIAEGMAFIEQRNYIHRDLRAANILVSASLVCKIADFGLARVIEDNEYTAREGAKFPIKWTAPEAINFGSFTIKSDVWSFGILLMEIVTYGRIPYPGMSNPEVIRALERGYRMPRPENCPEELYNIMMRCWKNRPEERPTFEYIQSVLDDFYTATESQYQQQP
structure (smiles),measurement,setting,value
"Cc1ccc(-n2nc(C(C)(C)C)cc2NC(=O)Nc2ccc(OCc3ccnc(Nc4cnccn4)c3)c3ccccc23)cc1 [Example 1, 1-(3-(tert-Butyl)-1-(p-tolyl)-1H-pyrazol-5-yl)-3-(4-((2-(pyrazin-2-ylamino)pyridin-4-yl)methoxy)naphthalen-1-yl)urea]",IC50,Hck,0.029 µM
same,IC50,[1],0.013 µM
same,EC50,[2],0.0016 µM
same,IC50,[3],0.0818 µM
same,"Cell numbers in BALF, Macrophage",[4]; 0.07 μg/mouse,172700 mL⁻¹
same,"Cell numbers in BALF, Macrophage, % inhibition",[4]; 0.07 μg/mouse,10.2%
same,"Cell numbers in BALF, Neutrophil",[4]; 0.07 μg/mouse,94200 mL⁻¹
same,"Cell numbers in BALF, Neutrophil, % inhibition",[4]; 0.07 μg/mouse,13.7%
same,"Cell numbers in BALF, Macrophage",[4]; 0.7 μg/mouse,149200 mL⁻¹
same,"Cell numbers in BALF, Macrophage, % inhibition",[4]; 0.7 μg/mouse,26.5%
same,"Cell numbers in BALF, Neutrophil",[4]; 0.7 μg/mouse,76600 mL⁻¹
same,"Cell numbers in BALF, Neutrophil, % inhibition",[4]; 0.7 μg/mouse,33.7%
same,"Cell numbers in BALF, Macrophage",[4]; 7 μg/mouse,113400 mL⁻¹
same,"Cell numbers in BALF, Macrophage, % inhibition",[4]; 7 μg/mouse,51.1%
same,"Cell numbers in BALF, Neutrophil",[4]; 7 μg/mouse,60400 mL⁻¹
same,"Cell numbers in BALF, Neutrophil, % inhibition",[4]; 7 μg/mouse,52.0%
same,macrophage and neutrophil accumulation in BALF induced by cigarette smoke (in words),[4],dose-dependent inhibition
